Test results as given in PubChem BioAssay (NCI).
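Results reflect a 48-hour exposure of cells in 96-well plates to compound at five concentrations. TGI is the concentration that stops growth completely.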

Columns and labels:
Assay in all cases: growth of human tumour cells (NCI), 48 h
M14 melanoma = test system: M14 melanoma
SR leukemia = test system: SR leukemia
RXF 393 renal = test system: RXF 393 renal
HL-60(TB) leukemia = test system: HL-60(TB) leukemia
KM12 colon = test system: KM12 colon
XF 498 CNS = test system: XF 498 CNS
HCC-2998 colon = test system: HCC-2998 colon
HCT-116 colon = test system: HCT-116 colon
K-562 leukemia = test system: K-562 leukemia
OVCAR-8 ovarian = test system: OVCAR-8 ovarian
CCRF-CEM leukemia = test system: CCRF-CEM leukemia
LXFL 529 NSCLC = test system: LXFL 529 NSCLC
SW-620 colon = test system: SW-620 colon
NCI-H460 lung = test system: NCI-H460 lung
COLO 205 colon = test system: COLO 205 colon
M19-MEL melanoma = test system: M19-MEL melanoma
ACHN renal = test system: ACHN renal
DMS 273 small cell lung = test system: DMS 273 small cell lung
MALME-3M melanoma = test system: MALME-3M melanoma
786-0 renal = test system: 786-0 renal
CAKI-1 renal = test system: CAKI-1 renal
NCI-H23 lung = test system: NCI-H23 lung
RXF-631 renal = test system: RXF-631 renal
OVCAR-5 ovarian = test system: OVCAR-5 ovarian
KM20L2 colon = test system: KM20L2 colon
LOX IMVI melanoma = test system: LOX IMVI melanoma
SNB-75 CNS = test system: SNB-75 CNS
A498 renal = test system: A498 renal
U251 CNS = test system: U251 CNS
SN12C renal = test system: SN12C renal
HOP-62 NSCLC = test system: HOP-62 NSCLC
DMS 114 small cell lung = test system: DMS 114 small cell lung
SK-MEL-28 melanoma = test system: SK-MEL-28 melanoma
HCT-15 colon = test system: HCT-15 colon
SNB-19 CNS = test system: SNB-19 CNS
NCI-H226 lung = test system: NCI-H226 lung
NCI-H522 lung = test system: NCI-H522 lung
EKVX NSCLC = test system: EKVX NSCLC
HT29 colon = test system: HT29 colon
TK-10 renal = test system: TK-10 renal
HOP-92 NSCLC = test system: HOP-92 NSCLC
OVCAR-4 ovarian = test system: OVCAR-4 ovarian
MOLT-4 leukemia = test system: MOLT-4 leukemia
UACC-62 melanoma = test system: UACC-62 melanoma
A549 NSCLC = test system: A549 NSCLC
DLD-1 colon = test system: DLD-1 colon
SK-OV-3 ovarian = test system: SK-OV-3 ovarian
IGROV1 ovarian = test system: IGROV1 ovarian
HOP-18 NSCLC = test system: HOP-18 NSCLC
RPMI-8226 leukemia = test system: RPMI-8226 leukemia
OVCAR-3 ovarian = test system: OVCAR-3 ovarian
SF-268 CNS = test system: SF-268 CNS
SNB-78 CNS = test system: SNB-78 CNS
UO-31 renal = test system: UO-31 renal
SF-295 CNS = test system: SF-295 CNS
UACC-257 melanoma = test system: UACC-257 melanoma
SK-MEL-5 melanoma = test system: SK-MEL-5 melanoma
SF-539 CNS = test system: SF-539 CNS
SK-MEL-2 melanoma = test system: SK-MEL-2 melanoma

Measured: TGI

O=C(Nc1cc(Cl)c(Cl)cc1Cl)C(=O)C(C(=O)c1ccccc1)C1OC(=O)c2ccccc21 (stereo not given)
not listed: SK-MEL-5 melanoma | SF-539 CNS | SK-MEL-2 melanoma
> 100 µM: all other assays above

CCCCCCC1=NOC(C(c2cc[nH]c2)N(C)[C@H](C(=O)OC)C(C)C)C1 (stereo not given in full)
33.9 µM: NCI-H522 lung
77.6 µM: OVCAR-3 ovarian
87.1 µM: SNB-78 CNS
62.7 µM: MOLT-4 leukemia
74.6 µM: LOX IMVI melanoma
68 µM: SW-620 colon
91.6 µM: SR leukemia
32.2 µM: COLO 205 colon
63.7 µM: HL-60(TB) leukemia
63.6 µM: KM12 colon
51.6 µM: SN12C renal
65.9 µM: SK-MEL-2 melanoma
53.9 µM: CCRF-CEM leukemia
not listed: NCI-H460 lung | HCT-15 colon | RPMI-8226 leukemia
> 100 µM: all other assays above

CCSC1=CC(Cc2ccc(OC)cc2)N(C(=O)OC)C1 (stereo not given)
60.1 µM: HL-60(TB) leukemia
73.7 µM: DMS 114 small cell lung
not listed: RPMI-8226 leukemia
> 100 µM: all other assays above
